{"source": "patent US8937096B2", "about": "“Use of benzo-fused heterocyle sulfamide derivatives for the treatment of mania and bipolar disorder” (priority 2005, dated 2015)", "key": {"dominant rats": {"tested_on": "dominant rats", "test": "Dominant-Submissive Relations (DSR) assay: Reduction of Dominant Behavior Model (RDBM) of mania", "format": "in vivo, rat", "experimental": "(§1) The DSR assay is divided into two models: Reduction of Dominant Behavior Model (RDBM) of mania and Reduction of Submissive Behavior Model (RSBM) of depression. The RDBM, wherein the dominant animals are treated with test compound, is predictive of the ability of the test compound to treat mania. The RSBM, wherein the submissive animals are treated with test compound, is predictive of the ability of the test compound to treat depression.\n(§2) Male Sprague Dawley rats (140 to 160 g) from Charles River Laboratories Wilmington, Mass. were used in this assay. Shipments of rats were received at two-week intervals. Each shipment went through five-day quarantine, one-week acclimation period, and one-week selection process, followed by five-weeks of drug or vehicle treatment to those pairs selected.\n(§3) Rats were housed four per cage. Access to food was restricted to one hour per day after testing on Monday through Thursday. After testing on Friday, rats had free access to food until being fasted again on Sunday. At no time were the rats deprived of water. The food deprivation periods used had little effect on weight gain as the average weight of rats was about 300 g at the end of the study. At the conclusion of experiment rats were sacrificed by decapitation, the trunk blood and brains were collected for in vitro experiments and drug concentration measurements.\n(§4) The basic testing apparatus consisted of two chambers connected with a tunnel only large enough to allow one rat to pass through at a time. On the floor, at the mid-point of the tunnel was a container of sweetened milk. This basic apparatus was replicated, so that a total of four pairs of rats can be video tracked simultaneously. The camera can distinguish rats marked by different colors. Thus, the rats' heads were colored for the purpose of video tracking, red in one cage and yellow in the other cage. Only one animal at a time can have comfortable access to the feeder, but both animals can drink milk during the five-minute daily session. During the five-minute daily sessions, time spent in the feeder zone by each rat was recorded by the video tracking software and saved into a text file.\nThe test began with a random assignment of rats into pairs. Each member of a pair was placed in an opposite chamber of the testing apparatus. The time spent in the feeder zone by each animal was recorded. During the first week (five days) of testing the animals habituate to the new environment. Dominance was assigned to the animal with the highest score during the second week of testing if three criteria were achieved. First, there must have been a significant difference (two-tailed t-test, P<0.05) between the average daily drinking scores of both animals. Second, the dominant animal score must have been at least 25% greater than the submissive animal's score. Finally, there must have been no “reversals” during the pair selection week where the putative submissive rat out-scored its dominant partner on isolated occasions. Ideally there were minimal reversals during the acclimation week as well. About twenty-five to thirty-three percent of the initial animal pairs achieved these criteria and only these pairs were continued in the study.\n(§5) Significant differences between time spent on the feeder by dominant and submissive rats were determined by ANOVA using GraphPad Prism software (GraphPad Software, Inc. San Diego, Calif.) followed by a two-tailed t-test (P<0.05). Comparisons were made between treatment groups using normalized dominance level values in paired animals. The dominance level is a value that measures social relation between paired subjects. Dominance level (DL)=FTD−FTS where FTD is the feeder time of dominant rats and FTS is the feeder time of submissive rats. The normalization was conducted according to the formula: Dominance Level(week n in %)=(Dominance Level(week n))/(Dominance Level(week 2) […]"}, "submissive rats": {"tested_on": "submissive rats", "test": "Dominant-Submissive Relations (DSR) assay: Reduction of Submissive Behavior Model (RSBM) of depression", "format": "in vivo, rat", "experimental": "as §1, §2, §3, §4\nThe test began with a random assignment of rats into pairs. Each member of a pair was placed in an opposite chamber of the testing apparatus. The time spent in the feeder zone by each animal was recorded. During the first week (five days) of testing the animals habituate to the new environment. Dominance was assigned to the animal with the highest score during the second week of testing if three criteria were achieved. First, there must have been a significant difference (two-tailed t-test, P<0.05) between the average daily drinking scores of both animals. Second, the dominant animal score must have been at least 25% greater than the submissive animal's score. Finally, there must have been no “reversals” during the pair selection week where the putative submissive rat out-scored its dominant partner on isolated occasions. Ideally there were minimal reversals during the acclimation week as well. About twenty-five to thirty-three percent of the initial animal pairs achieved these criteria and only these pairs were continued in the study. […]\nas §5"}, "[1]": {"tested_on": "amygdala kindled seizures", "test": "Amygdala Kindling Assay (Kindling Prevention)", "format": "in vivo, rat"}, "[2]": {"tested_on": "LTG-resistant amygdala kindled seizures", "test": "Lamotrigine Resistant Amygdala Kindled Rat Model (Interruption of Kindled State)", "format": "in vivo", "conditions": "75 mg/kg i.p.", "experimental": "Amygdala kindling is less severe than hippocampal kindling, such that many AEDs are effective against amygdala kindled seizures, but are ineffective against hippocampal kindled seizures. […] Fifteen minutes after the last stimulation, a single dose of vehicle or test compound was administered i.p. After 15 min, each rat was then stimulated every 30 min for 3 to 4 h. After each stimulation, individual seizure scores and after-discharge durations were recorded. The group mean±SEM was calculated for each parameter."}}, "note": "Entries after “also recorded” stand apart in the source; their conditions may differ."}
{"smiles": "NS(=O)(=O)NC[C@H]1COc2cc(Cl)ccc2O1", "note": "[Compound #8, (2S)-(−)-N-(6-Chloro-2,3-dihydro-benzo[1,4]dioxin-2-ylmethyl)-sulfamide]", "values": [{"measurement": "AOT50 compared with lithium", "setting": "dominant rats; 0.05 mg/kg and 0.5 mg/kg, non-linear regression fit of normalized daily DL values", "value": "significantly shorter from that of lithium"}, {"measurement": "first day of consistent lack of statistical significance between feeder time of dominant and submissive rats (activity onset time)", "setting": "dominant rats; 0.05 mg/kg p.o. QD", "value": 3, "unit": "days"}, {"measurement": "first day of consistent lack of statistical significance between feeder time of dominant and submissive rats (activity onset time)", "setting": "dominant rats; 0.5 mg/kg p.o. QD", "value": 4, "unit": "days"}, {"measurement": "dominance level (DL) values vs vehicle", "setting": "dominant rats; 0.5 mg/kg p.o. QD, 5 weeks, strongest effect", "value": "significant difference in dominance level (DL) values between vehicle and compound treated rats starting in the second week"}, {"measurement": "first day of consistent lack of statistical significance between feeder time of dominant and submissive rats (activity onset time)", "setting": "dominant rats; 2.5 mg/kg p.o. QD", "value": 10, "unit": "days"}, {"measurement": "dominance level (DL) response", "setting": "dominant rats; 2.5 mg/kg, 5.0 mg/kg and 50.0 mg/kg p.o., compared with 0.5 mg/kg dose (not significantly different)", "value": "weaker response"}, {"measurement": "first day of consistent lack of statistical significance between feeder time of dominant and submissive rats (activity onset time)", "setting": "dominant rats; 5.0 mg/kg p.o. QD", "value": 11, "unit": "days"}, {"measurement": "first day of consistent lack of statistical significance between feeder time of dominant and submissive rats (activity onset time)", "setting": "dominant rats; 50.0 mg/kg p.o. QD", "value": 3, "unit": "days"}, {"measurement": "ED50", "setting": "dominant rats; Rattus norvegicus, po, p.o. QD, calculated", "value": "0.03 ± 0.004", "unit": "mg/kg"}, {"measurement": "difference between dominant and submissive rats lost", "setting": "dominant rats; dominant rats treated p.o. QD at 0.05 mg/kg, 0.5 mg/kg and 50.0 mg/kg", "value": "lost after the first week of treatment"}, {"measurement": "difference between dominant and submissive rats lost", "setting": "dominant rats; dominant rats treated p.o. QD at 2.5 mg/kg and 5.0 mg/kg", "value": "after the second week of treatment"}, {"measurement": "dominant behavior", "setting": "dominant rats; overall result of the assay", "value": "reduced dominant behavior"}, {"measurement": "Emax in the RDBM", "setting": "dominant rats; p.o. QD, calculated", "value": "116.4±2.3", "unit": "%"}, {"measurement": "permissiveness of the treated dominant rats", "setting": "dominant rats; treated dominant rats permitted submissive partners to increase time on the feeder", "value": "observed to increase"}, {"measurement": "loss of significance between dominant and submissive rats feeder time", "setting": "submissive rats; 2.5 mg/kg and 120.0 mg/kg p.o.", "value": "no consistent loss of significance"}, {"measurement": "Activity Onset Time at the 50% effect (AOT50)", "setting": "submissive rats; 2.5 mg/kg p.o.", "value": 2.1, "unit": "days"}, {"measurement": "Dominance Level (DL) values vs control", "setting": "submissive rats; 2.5 mg/kg p.o.", "value": "did not significantly differ from control"}, {"measurement": "maximum of the effect (non-linear regression), ± SEM", "setting": "submissive rats; 2.5 mg/kg p.o.", "value": "52.4±32.7", "unit": "%"}, {"measurement": "Activity Onset Time at the 50% effect (AOT50)", "setting": "submissive rats; 12 mg/kg p.o.", "value": 5.3, "unit": "days"}, {"measurement": "maximum of the effect (non-linear regression), ± SEM", "setting": "submissive rats; 12 mg/kg p.o.", "value": "87.9±42.6", "unit": "%"}, {"measurement": "Dominance Level (DL) values vs control", "setting": "submissive rats; 12.0 mg/kg p.o.", "value": "significantly different from vehicle treated controls after the second, fourth and fifth week of treatment"}, {"measurement": "first day of consistent lack of statistical significance between feeder time of dominant and submissive rats (activity onset time)", "setting": "submissive rats; 12.0 mg/kg p.o.", "value": 6, "unit": "days"}, {"measurement": "Activity Onset Time at the 50% effect (AOT50)", "setting": "submissive rats; 60 mg/kg p.o.", "value": 1.6, "unit": "days"}, {"measurement": "Dominance Level (DL) values vs control", "setting": "submissive rats; 60 mg/kg p.o.", "value": "significant difference in DL values relative to vehicle starting at the first week and continuing through the treatment duration of 5 weeks"}, {"measurement": "first day of consistent lack of statistical significance between feeder time of dominant and submissive rats (activity onset time)", "setting": "submissive rats; 60 mg/kg p.o.", "value": 4, "unit": "days"}, {"measurement": "maximum of the effect (non-linear regression), ± SEM", "setting": "submissive rats; 60 mg/kg p.o.", "value": "116.9±29.5", "unit": "%"}, {"measurement": "Dominance Level (DL) values vs control", "setting": "submissive rats; 120 mg/kg p.o., significance dissipated after the second week", "value": "significantly different from the control group after first week"}, {"measurement": "submissiveness during first week of treatment", "setting": "submissive rats; fluoxetine 10 mg/kg i.p., Compound #8 treated groups p.o.", "value": "did not show this effect"}, {"measurement": "submissive behavior", "setting": "submissive rats; p.o. once a day for 5 weeks, 2.5-120 mg/kg", "value": "reduce submissive behavior in a dose-dependent manner; also recorded: reduced submissive behavior"}, {"measurement": "Emax in the RSBM", "setting": "submissive rats; p.o., calculated", "value": "131.4±4.7", "unit": "%"}, {"measurement": "significant difference between dominant and submissive rats lost", "setting": "submissive rats; submissive rats treated p.o., all doses used (2.5, 12, 60, 120 mg/kg)", "value": "lost after the first week of treatment"}, {"measurement": "acquisition of kindling", "setting": "[1]; 75 mg/kg i.p.", "value": "prevented the acquisition of the full generalized kindled seizure"}, {"measurement": "seizure score at the conclusion of the drug- and stimulus-free period", "setting": "[1]; 75 mg/kg i.p. during kindling acquisition, Racine scale, vehicle 4.6±0.24", "value": "1.4±0.40"}, {"measurement": "after-discharge (AD) duration vs vehicle", "setting": "[1]; 75 mg/kg i.p., kindling acquisition phase", "value": "No statistical difference between treatment groups"}, {"measurement": "after-discharge duration reduced", "setting": "[2]", "value": 86, "unit": "%"}, {"measurement": "rats exhibiting ataxia and sedation", "setting": "[2]; n=9", "value": "Four of the nine"}, {"measurement": "rats protected", "setting": "[2]; n=9", "value": "Eight out of nine"}, {"measurement": "after-discharge duration after treatment", "setting": "[2]; from 73 sec", "value": 10, "unit": "s"}, {"measurement": "seizure score after treatment", "setting": "[2]; reduced from a 5", "value": 0.8}]}
